Measured values taken from publication PMC4210897, “Antimicrobial Activity of Peptides Derived from Olive Flounder Lipopolysaccharide Binding Protein/Bactericidal Permeability-Increasing Protein (LBP/BPI)” (Marine Drugs, 2014).
Where no end group is shown, it is not given here.

Experiments:
[1] = tested on: E. coli D31; assay: URDA, MEC; assay type: cell-based, Escherichia coli; settings: E. coli D31, Gram −, pH 6.6, 37 °C, triplicate averaged
Method: (§1) The antimicrobial activity of the purified peptide was assessed as described previously. We tested the synthetic peptides against several Gram-positive bacteria including two Bacillus subtilis strains, Micrococcus luteus, Staphylococcus aureus, and Streptococcus iniae, Gram-negative bacteria including three Escherichia coli strains, Aeromonas hydrophila, Edwardsiella tarda, Pseudomonas aeruginosa, Vibrio parahemolyticus, and Salmonella enteric, as well as the yeast Candida albicans. All strains were grown overnight for 18 h in trypticase soy broth (TSB) or sabouraud dextrose broth (SDB) at the appropriate temperature (25 °C for A. hydrophila, E. tarda, P. aeruginosa, S. iniae, and V. parahemolyticus and 37 °C for the other strains). After an overnight incubation, the bacterial and C. albicans suspensions were diluted to a McFarland turbidity standard of 0.5 (Vitek Colorimeter #52-1210; Hach, Loveland, CO, USA) corresponding to ~10^8 CFU/mL for bacteria and ~10^6 CFU/mL for C. albicans. One-half milliliter of diluted bacterial or C. albicans suspension was added to 9.5 mL of underlay gel containing 5 × 10^6 CFU/mL or 5 × 10^4 CFU/mL in 10 mM phosphate buffer (PB; pH 6.6) with 0.03% TSB or 0.03% SDB and 1% Type I (low EEO) agarose. The purified peptide was serially diluted twofold in 5 μL of acidified water (0.01% HAc), and each dilution was added to 2.5-mm-diameter wells made in the 1-mm-thick underlay gels. After incubation for 3 h at either 25 °C (for A. hydrophila, E. tarda, P. aeruginosa, S. iniae, and V. parahemolyticus) or 37 °C (the other strains), the bacterial or yeast suspension was overlaid with 10 mL of double-strength overlay gel containing 6% TSB or 6% SDB with 10 mM PB (pH 6.6) in 1% agarose. Plates were incubated for an additional 18–24 h, after which the clearing zone diameters were measured. After subtracting the diameter of the well, the clearing zone diameter was expressed in units (0.1 mm = 1 U).
All tested bacteria and yeast were prepared as described above. The minimal effective concentration (MEC, μg/mL) of the synthetic peptides was calculated as the x-intercept of a plot of units against the log10 of the peptide concentration. […] The antimicrobial assay was performed in triplicate and the results were averaged.

[2] = tested on: human red blood cells (RBCs, blood type O); assay: Hemolytic activity assay; assay type: cell-based; settings: 3% hematocrit, 60 min, 37 °C; for Hemolysis against RBCs up to 100 μg/mL: A405, up to concentrations of 100 μg/mL, triplicate averaged
Method: The hemolytic activity of the peptides was determined using human red blood cells (RBCs, blood type O). The RBCs were collected from citric acid-treated blood by centrifugation at 3000× g for 5 min and washed three times with 10 mM PB (pH 7.4) containing 150 mM NaCl to remove the plasma and buffy coat. A suspension of 3% hematocrit in buffer with or without peptides was incubated for 60 min at 37 °C. Hemolysis was expressed as the hemoglobin content obtained from the absorbance of the supernatant at 405 nm after centrifugation at 3000× g for 5 min. A 100% hemolysis was determined based on hemoglobin release after the addition of 0.1% Triton X-100. The hemolysis percentage of the peptides was calculated using the following formula: % Hemolysis = [(Abs405nm in the peptide solution − Abs405nm in buffer)/(Abs405nm in 0.1% Triton X-100 − Abs405nm in buffer)] × 100
Hemolytic assays were performed in triplicate and the results were averaged.

[3] = tested on: B. subtilis KCTC1021; assay: Killing kinetic assay; assay type: cell-based, Bacillus subtilis; settings: 10^6 CFU/mL, 37 °C, triplicate averaged
Method: To determine the killing activities of ofLBP-derived analogs, kinetic studies were performed using B. subtilis KCTC1021 and E. coli ML35p at 1× MEC and 5× MEC concentrations. Overnight culture of B. subtilis KCTC1021 and E. coli ML35p were diluted in TBS to a cell density of 10^6 CFU/mL and 1 mL of each suspension was exposed to each ofLBP-derived analog and incubated at 37 °C overnight. The resulting colonies were counted. Percent killing was calculated as the proportion of live bacteria at a given time point following the addition of peptide compared to the number of bacteria present prior to the addition of peptide. Control cultures of each bacterium were incubated without any peptide and assayed at time points corresponding to the test culture assays to ensure no spontaneous loss of viability. Killing kinetic assays were also performed in triplicate, and the results were averaged.

[4] = tested on: V. harveyi; assay: URDA of non-heated and heated peptides; assay type: cell-based, Vibrio harveyi; settings: non-heated and after 100 °C for 10 min
[5] = tested on: S. iniae; assay: URDA of non-heated and heated peptides; assay type: cell-based, Streptococcus iniae; settings: non-heated and after 100 °C for 10 min
Method: as §1
(§2) To investigate the effect of temperature on ofLBP analogs, antimicrobial activity was tested using an ultrasensitive radial diffusion assay (URDA) against two bacteria including V. harveyi and S. iniae, as well as a yeast, C. albicans. To explore thermal stability, the ofLBP analogs were incubated at 100 °C for 10 min. After heat treatment, the peptides were cooled and used for URDA as described above.

[6] = tested on: C. albicans; assay: URDA of non-heated and heated peptides; assay type: cell-based, Candida albicans; settings: non-heated and after 100 °C for 10 min
Method: as §1, §2

[7] = tested on: λ-HindIII-digested DNA; assay: DNA-binding assay (gel retardation, EMSA); settings: λ-HindIII-digested DNA 50 ng, 5 min room temperature, 1.0% agarose; for Electrophoretic mobility of DNA at 0.625 μg peptide: peptide 0.625 μg
Method: DNA binding assays were performed as described previously with minor modifications. This test assessed peptide-DNA binding by examining the inhibition of the rate of migration of DNA bands through agarose gels. A commercial molecular weight marker, λ-HindIII-digested DNA (50 ng) (Roche, Basel, Switzerland), was mixed with varying amounts of peptide (0 μg, 0.156 μg, 0.313 μg, 0.625 μg, and 1.25 μg) in 0.01% acetic acid, incubated at room temperature for 5 min, and then electrophoresed in 1.0% agarose gels containing 0.5 μg/mL ethidium bromide (EtBr).

[8] = tested on: DNA polymerase; settings: PCR of E. coli 16S rDNA; for DNA polymerase inhibitory ability: 100 ng genomic DNA, 30 cycles
Method: The ofLBP analogs were dissolved in 0.01% acetic acid at a concentration of 1000 μg/mL. To assess PCR inhibition, various concentrations of the ofLBP analogs (2.5, 1.25, 0.625, and 0.313 μg/mL) were added to the respective reaction mixtures. E. coli genomic DNA (100 ng) was used as a template for PCR with the following primer pairs: 16S-F1, 5′-[…]-3′ and 16S-R3, 5′-[…]-3′. The predicted amplicon is ~1.5 kb in length. Each PCR comprised 30 cycles each of 30 s at 95 °C, 30 s at 55 °C, and 1 min at 72 °C. After PCR, all amplicons were electrophoresed in 1.0% agarose gels containing EtBr.

| Substance | Minimal Effectives Concentration [1] | Hemolytic activity at 50 μg/mL [2] | Time to kill B. subtilis KCTC1021 at 1× MEC [3] | Time to kill B. subtilis KCTC1021 at 5× MEC [3] | Antimicrobial activity against V. harveyi (URDA) [4] | Antimicrobial activity against S. iniae (URDA) [5] | Antimicrobial activity against C. albicans (URDA) [6] | Electrophoretic mobility of DNA at 0.625 μg peptide [7] | DNA polymerase inhibitory ability [8] | DNA polymerase inhibition at all tested concentrations ([8]; 0.313–2.5 μg peptide) | Hemolysis against RBCs up to 100 μg/mL [2] | DNA polymerase inhibition at 1.25 μg ([8]; 1.25 μg peptide, compared to ofLBP 6A) | Electrophoretic mobility of DNA at 1.25 μg peptide ([7]; peptide 1.25 μg) | Hemolytic activity from 50–100 μg/mL ([2]; concentrations of 50–100 μg/mL, 100% = 0.1% Triton X-100) |
| --- | --- | --- | --- | --- | --- | --- | --- | --- | --- | --- | --- | --- | --- | --- |
| MKLVKTWLKVLK-NH2 [ofLBP 6A] | 2.6 µg/mL | did not show significant hemolytic activity | ≤ 40 min | ≤ 10 min | significant activity | significant activity | significant activity | almost completely inhibited | strong DNA polymerase inhibitory ability | complete inhibitory activity |  |  |  |  |
| Piscidin 1 [reference compound] | 2.0 µg/mL |  | ≤ 40 min | ≤ 10 min |  |  |  |  |  |  |  |  |  |  |
| KLVKTWLKVLK [ofLBP 5A] | 0.9 µg/mL |  |  |  |  |  | significant activity | almost completely inhibited | strong DNA polymerase inhibitory ability |  | did not cause hemolysis | less inhibitory activity |  |  |
| KLVKTQLKVLK [ofLBP 4N] |  |  |  |  | did not show any antimicrobial activity | did not show any antimicrobial activity | did not show any antimicrobial activity | slightly inhibited | no DNA polymerase inhibitory ability |  | did not cause hemolysis |  | almost completely inhibited |  |
| RFPGLMMKLLV-NH2 (C-terminus assumed) [ofLBP 1N] | 1.3 µg/mL | did not show significant hemolytic activity |  |  |  | significant activity | significant activity |  |  |  |  |  |  |  |
| RFPKLMMKLLV-NH2 [ofLBP 2A] | 0.5 µg/mL | did not show significant hemolytic activity |  |  |  | significant activity | significant activity |  |  |  |  |  |  | 28%–50% |
